The assay deals with PARP7 (Homo sapiens (Human), UniProt Q7Z3E1). In words: Enzymatic assay for inhibition of PARP7: TR-FRET displacement of biotinylated Probe A from the TIPARP active site. In kind it is binding. The following applies: Table A-1. The method, then:
20 nL of a dose response curve of each test compound was spotted in black 384-well polystyrene proxiplates (Perkin Elmer) using a Mosquito (TTP Labtech). […] Reactions were incubated at 25° C. for an additional 30 min, then read on an Envision platereader equipped with a LANCE/DELFIA top mirror (Perkin Elmer) using excitation of 320 nm and emission of 615 nm and […] with a 90 μs delay. The ratio of the 665/615 nm emission were calculated for each well to determine the amount of complex of TIPARP and Probe A in each well. […] The Hill Coefficient is normally allowed to float but may also be fixed at 1 in a 3-parameter fit. Y is the % inhibition and x is the compound concentration.

Our source for the IC50 values is US10550105B2 (Ribon Therapeutics Inc., priority 2018, dated 2020).

A word on the IC50: it is the concentration at which inhibition is half-maximal.

Chain of PARP7 (Q7Z3E1 whole entry): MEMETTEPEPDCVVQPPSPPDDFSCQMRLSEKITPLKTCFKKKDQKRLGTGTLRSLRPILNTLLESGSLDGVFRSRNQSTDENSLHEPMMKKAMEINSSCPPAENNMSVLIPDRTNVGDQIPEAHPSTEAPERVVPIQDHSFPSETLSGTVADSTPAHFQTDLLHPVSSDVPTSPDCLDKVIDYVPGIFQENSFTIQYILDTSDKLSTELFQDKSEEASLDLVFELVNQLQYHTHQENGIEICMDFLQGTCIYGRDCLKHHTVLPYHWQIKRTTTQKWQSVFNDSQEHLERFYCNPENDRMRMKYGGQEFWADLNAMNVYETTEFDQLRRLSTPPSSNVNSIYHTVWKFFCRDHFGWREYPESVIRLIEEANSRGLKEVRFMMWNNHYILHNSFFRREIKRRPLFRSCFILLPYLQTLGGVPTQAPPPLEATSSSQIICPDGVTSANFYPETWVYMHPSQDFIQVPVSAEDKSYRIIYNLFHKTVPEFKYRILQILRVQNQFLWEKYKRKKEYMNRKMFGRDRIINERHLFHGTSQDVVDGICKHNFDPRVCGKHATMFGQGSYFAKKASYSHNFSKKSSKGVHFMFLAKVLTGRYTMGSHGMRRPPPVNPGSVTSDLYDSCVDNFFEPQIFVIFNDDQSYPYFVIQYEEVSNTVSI

With `C[C@H](COCCC(=O)N1CCN(c2ncc(C(F)(F)F)cn2)CC1)Oc1cn[nH]c(=O)c1C(F)(F)F` (single isomer, unassigned) [Example 544 Isomer B], the IC50 fell in the range of 100 to 1000 nM.
As to `C[C@@H](COc1cn[nH]c(=O)c1C(F)(F)F)OCCC(=O)N1CCN(c2ncc(C(F)(F)F)cn2)CC1` (single isomer, unassigned) [Example 544 Isomer C], the IC50 was < 100 nM.
Then `C[C@H](COc1cn[nH]c(=O)c1C(F)(F)F)OCCC(=O)N1CCN(c2ncc(C(F)(F)F)cn2)CC1` (single isomer, unassigned) [Example 544 Isomer D], with 100 to 1000 nM; and `O=C(C[C@@H]1CC[C@@H](COc2cn[nH]c(=O)c2C(F)(F)F)O1)N1CCN(c2ccc(C(F)(F)F)cn2)CC1` (single isomer, unassigned) [Example 545 Isomer A], with 100 to 1000 nM.
Then `O=C(C[C@H]1CC[C@@H](COc2cn[nH]c(=O)c2C(F)(F)F)O1)N1CCN(c2ccc(C(F)(F)F)cn2)CC1` (single isomer, unassigned) [Example 545 Isomer B], with 100 to 1000 nM.
For the molecule `O=C(C[C@H]1CC[C@H](COc2cn[nH]c(=O)c2C(F)(F)F)O1)N1CCN(c2ccc(C(F)(F)F)cn2)CC1` (single isomer, unassigned) [Example 545 Isomer C], the IC50 is < 100 nM.
Turning to `O=C(C[C@@H]1CC[C@H](COc2cn[nH]c(=O)c2C(F)(F)F)O1)N1CCN(c2ccc(C(F)(F)F)cn2)CC1` (single isomer, unassigned) [Example 545 Isomer D], the IC50 was < 100 nM.
`O=C(C[C@@H]1CC[C@@H](CNc2cn[nH]c(=O)c2C(F)(F)F)O1)N1CCN(c2ccc(C(F)(F)F)cn2)CC1` (single isomer, unassigned) [Example 546 Isomer A]: the IC50 was < 100 nM.
Then `O=C(C[C@H]1CC[C@H](CNc2cn[nH]c(=O)c2C(F)(F)F)O1)N1CCN(c2ccc(C(F)(F)F)cn2)CC1` (single isomer, unassigned) [Example 546 Isomer B], with < 100 nM.
Regarding `O=C(C[C@H]1CC[C@@H](CNc2cn[nH]c(=O)c2C(F)(F)F)O1)N1CCN(c2ccc(C(F)(F)F)cn2)CC1` (single isomer, unassigned) [Example 546 Isomer C], the IC50 is < 100 nM.
`O=C(C[C@@H]1CC[C@H](CNc2cn[nH]c(=O)c2C(F)(F)F)O1)N1CCN(c2ccc(C(F)(F)F)cn2)CC1` (single isomer, unassigned) [Example 546 Isomer D]: the IC50 was < 100 nM.
Then `O=C(C[C@@H]1CC[C@@H](COc2cn[nH]c(=O)c2C(F)(F)F)O1)N1CCN(c2ncc(Cl)cn2)CC1` (single isomer, unassigned) [Example 565 Isomer A], with 100 to 1000 nM; and `O=C(C[C@H]1CC[C@H](COc2cn[nH]c(=O)c2C(F)(F)F)O1)N1CCN(c2ncc(Cl)cn2)CC1` (single isomer, unassigned) [Example 565 Isomer B], with 100 to 1000 nM.
Turning to `O=C(C[C@H]1CC[C@@H](COc2cn[nH]c(=O)c2C(F)(F)F)O1)N1CCN(c2ncc(Cl)cn2)CC1` (single isomer, unassigned) [Example 565 Isomer C], the IC50 was < 100 nM.
Then `O=C(C[C@@H]1CC[C@H](COc2cn[nH]c(=O)c2C(F)(F)F)O1)N1CCN(c2ncc(Cl)cn2)CC1` (single isomer, unassigned) [Example 565 Isomer D], with < 100 nM.
As to `O=C(C[C@@H]1CC[C@@H](COc2cn[nH]c(=O)c2Cl)O1)N1CCN(c2ncc(Cl)cn2)CC1` (single isomer, unassigned) [Example 566 Isomer A], the half-inhibitory concentration (IC50) was ≥ 1000 nM.
Next, `O=C(C[C@H]1CC[C@H](COc2cn[nH]c(=O)c2Cl)O1)N1CCN(c2ncc(Cl)cn2)CC1` (single isomer, unassigned) [Example 566 Isomer B]: ≥ 1000 nM.
Next, `O=C(C[C@H]1CC[C@@H](COc2cn[nH]c(=O)c2Cl)O1)N1CCN(c2ncc(Cl)cn2)CC1` (single isomer, unassigned) [Example 566 Isomer C]: 100 to 1000 nM.
